The structures appear in SMILES notation.

For one data set, the system named is LXRa (NR1H2). As to the kind of experiment: NCGC_LXR_Agonist: GAL4 BLAM Reporter gene assay: LXRa. It counts as cell-based, human. Particulars: agonist mode; scale not given, looks like -log10 of molar active concentration; 0 = no activity. The protocol:
(§1) These assays measure binding constants and enzyme inhibition values for nuclear receptors. The targets include [drawing 67] , [drawing 68] , [drawing 69] , [drawing 70] , [drawing 71] , [drawing 72] , [drawing 73] , [drawing 74] , [drawing 75] and [drawing 76] . Each of the nuclear receptor targets was measured in agonist mode. Assays were run at the NIH Chemical Genomics Center (Rockville, MD).
(§2) Cell-based HTS Assays: These assays measuring binding constants and enzyme inhibition values for nuclear receptors. The targets include AR, ER, FXR, LXR, PPARα, PPARδ, PPARγ, RXRα, RXRβ and PXR. Each of the nuclear receptor targets was measured in both agonist and antagonist mode, but the antagonist data is still undergoing analysis due to possible interference between cytotoxicity and assay activity, so antagonist mode data were not used in the present analysis. Assays were run at the NIH Chemical Genomics Center (Rockville, MD) as part of the Tox21 collaboration. […] The R^2 was required to be ≥0.5. Values where only the highest concentration exceeded 50% activity were excluded to eliminate weak or false positives. Detailed description of the methods, data and analysis methods for this dataset will be presented in a separate publication.
Background: In a reporter assay the amount or activity of a reporter protein is the signal.

The target of a further data set is T1, RXRa (RXRA) (Homo sapiens, UniProt P19793).
T1 sequence (P19793 227-462 limits assumed): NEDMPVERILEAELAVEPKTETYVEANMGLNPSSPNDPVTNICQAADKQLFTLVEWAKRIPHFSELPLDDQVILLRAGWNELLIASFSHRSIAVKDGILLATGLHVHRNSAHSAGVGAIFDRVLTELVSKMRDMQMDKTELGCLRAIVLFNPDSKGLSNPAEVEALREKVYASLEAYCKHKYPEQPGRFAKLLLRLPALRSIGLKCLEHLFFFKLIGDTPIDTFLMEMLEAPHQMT
The data set can be described thus: NCGC_RXRa_Agonist: GAL4 BLAM Reporter gene assay: RXRa. The data set is classed as cell-based. Particulars: agonist mode; scale not given, looks like -log10 of molar active concentration; 0 = no activity. The protocol:
as §1, §2

Data set [1] has as its target T2, ESR1 (estrogen receptor 1) (Homo sapiens, UniProt P03372).
T2 construct: expressed in transfected cells; host or cells: HepG2
The data set can be described thus: ATG_ERa_TRANS: Factorial reporter gene assay (HepG2). The data set is classed as cell-based. Conditions: HepG2; scale not given, looks like -log10 of molar active concentration; 0 = no activity. The gist of the method:
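HepG2 cells transfected with multiplexed reporter libraries: cis-acting binding-site reporters (CIS) and a one-hybrid nuclear-receptor trans system (TRANS). Chemicals tested at seven concentrations, starting at the maximum tolerated concentration with three-fold serial dilutions.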

A further data set concerns the target T3, LXRb (NR1H2) (Homo sapiens, UniProt P55055).
T3 construct: expressed in transfected cells; host or cells: HepG2
T3 sequence (P55055 1-460): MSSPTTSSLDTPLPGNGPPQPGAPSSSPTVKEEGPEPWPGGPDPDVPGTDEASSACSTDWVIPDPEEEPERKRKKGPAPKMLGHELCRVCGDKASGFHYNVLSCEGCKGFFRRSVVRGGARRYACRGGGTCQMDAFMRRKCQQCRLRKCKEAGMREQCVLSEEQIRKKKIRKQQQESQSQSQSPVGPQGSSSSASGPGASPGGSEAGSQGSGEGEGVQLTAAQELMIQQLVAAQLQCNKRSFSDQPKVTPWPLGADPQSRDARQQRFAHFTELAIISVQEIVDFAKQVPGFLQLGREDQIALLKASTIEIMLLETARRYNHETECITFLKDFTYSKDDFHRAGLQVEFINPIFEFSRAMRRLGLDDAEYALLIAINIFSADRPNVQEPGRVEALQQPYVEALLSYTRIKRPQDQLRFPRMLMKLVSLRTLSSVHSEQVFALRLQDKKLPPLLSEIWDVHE
The data set can be described thus: ATG_LXRb_TRANS: Factorial reporter gene assay (HepG2). The data set is classed as cell-based. Conditions: HepG2; scale not given, looks like -log10 of molar active concentration; 0 = no activity. As to the method:
A multiple reporter transcription unit (MRTU) library consisting of 48 transcription factor binding sites was transfected into the HepG2 human liver hepatoma cell line. In addition to the cis-acting reporter genes (CIS), a modification of the approach was used to generate a trans-system (TRANS) with a mammalian one-hybrid assay consisting of an additional 25 MRTU library reporting the activity of nuclear receptor super-family members. […] These assays were performed by Attagene Inc. (Morrisville NC) under contract to EPA.
In addition to the cis-acting reporter genes (CIS), a modification of the approach was used to generate a trans-system (TRANS) with a mammalian one-hybrid assay consisting of an additional 25 MRTU library reporting the activity of nuclear receptor super-family members. […] Chemicals were then tested in the CIS and TRANS assays at seven concentrations starting at the MTC and followed by three-fold serial dilutions. These assays were performed by Attagene Inc. (Morrisville NC) under contract to EPA. Detailed description of the methods, data and analysis methods for this dataset will be presented in a separate publication.

The test system of a further data set is CYP1A2. As to the kind of experiment: CLZD_CYP1A2: Change in expression of CYP1A2 (primary human hepatocytes). Particulars: 24 hr, scale not given, looks like -log10 of molar active concentration, 0 = no activity. It counts as cell-based. The procedure, abridged:
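Primary human hepatocyte cultures were exposed to test chemicals at 5 concentrations (0.004-40 µM) for 6, 24 or 48 hr.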

The subject of a further data set is Rat Liver. Conditions: rat chronic study, liver, preneoplastic lesion; coded 6 / 0, code not explained here; ref ToxRefDB; cited from earlier work.

T2 sequence (P03372 whole entry): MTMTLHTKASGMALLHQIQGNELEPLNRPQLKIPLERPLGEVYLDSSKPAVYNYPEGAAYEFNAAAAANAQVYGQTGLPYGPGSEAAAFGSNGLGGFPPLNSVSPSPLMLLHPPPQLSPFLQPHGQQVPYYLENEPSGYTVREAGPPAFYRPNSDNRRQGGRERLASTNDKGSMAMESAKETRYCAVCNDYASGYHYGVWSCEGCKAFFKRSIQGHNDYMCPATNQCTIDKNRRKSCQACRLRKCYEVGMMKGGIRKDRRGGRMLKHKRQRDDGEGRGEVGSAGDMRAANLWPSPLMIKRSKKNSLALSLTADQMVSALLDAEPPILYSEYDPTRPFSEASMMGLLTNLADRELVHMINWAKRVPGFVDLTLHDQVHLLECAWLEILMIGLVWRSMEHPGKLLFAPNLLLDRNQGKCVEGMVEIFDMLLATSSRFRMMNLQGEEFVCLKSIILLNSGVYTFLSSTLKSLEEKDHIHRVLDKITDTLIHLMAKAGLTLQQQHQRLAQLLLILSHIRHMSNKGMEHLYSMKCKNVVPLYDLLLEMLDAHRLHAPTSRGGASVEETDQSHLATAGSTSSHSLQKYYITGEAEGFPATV

With `COC(=O)c1ccccc1CS(=O)(=O)NC(=O)Nc1nc(OC)cc(OC)n1` [r33], the NCGC_LXR_Agonist in the data set on LXRa (NR1H2) turned out to be 0. At RXRa (RXRA), the NCGC_RXRa_Agonist was determined as 0. Further, the ATG_ERa_TRANS in data set [1] worked out at 0. Besides, the ATG_LXRb_TRANS on LXRb (NR1H2) was found to be 4.347. Moreover, the CLZD_CYP1A2_24 with CYP1A2 was determined as 0.

`CC(C)N1C(=O)c2ccccc2NS1(=O)=O` [r37] gave an NCGC_LXR_Agonist in the data set on LXRa (NR1H2) of 0. The compound also gave an NCGC_RXRa_Agonist at RXRa (RXRA) of 0. Besides, the CHR_Rat_Liver_2_PreneoplasticLesion in the data set with Rat Liver is given as 0. Also, the ATG_ERa_TRANS in data set [1] stood at 0. This compound also displayed an ATG_LXRb_TRANS at LXRb (NR1H2) of 4.357. In addition, in the data set on CYP1A2, the CLZD_CYP1A2_24 was 0.

Regarding `COc1ccc(-c2ccccc2)cc1NNC(=O)OC(C)C` [r38], in the data set with LXRa (NR1H2), the NCGC_LXR_Agonist is given as 0. This compound showed an NCGC_RXRa_Agonist on RXRa (RXRA) of 0. The CHR_Rat_Liver_2_PreneoplasticLesion with Rat Liver was 0. The compound further came in with an ATG_ERa_TRANS in data set [1] of 0. Moreover, at LXRb (NR1H2), the ATG_LXRb_TRANS is 0. Moreover, the CLZD_CYP1A2_24 in the data set with CYP1A2 came out at 5.768.

`Cc1c(COC(=O)C2C(/C=C(\Cl)C(F)(F)F)C2(C)C)cccc1-c1ccccc1` (stereo not drawn) [r39]: the NCGC_LXR_Agonist in the data set with LXRa (NR1H2) was determined as 0. Besides, the NCGC_RXRa_Agonist at RXRa (RXRA) came out at 0. Also, in the data set with Rat Liver, the CHR_Rat_Liver_2_PreneoplasticLesion is given as 0. The compound also returned an ATG_ERa_TRANS in data set [1] of 4.432. Besides, the ATG_LXRb_TRANS on LXRb (NR1H2) is recorded as 0. The compound further gave a CLZD_CYP1A2_24 in the data set with CYP1A2 of 0.

In the data set on LXRa (NR1H2), `CC(C)(c1ccc(O)cc1)c1ccc(O)cc1` [r40] showed an NCGC_LXR_Agonist of 0. Besides, the NCGC_RXRa_Agonist at RXRa (RXRA) is given as 0. Besides, the CHR_Rat_Liver_2_PreneoplasticLesion in the data set on Rat Liver was 0. In data set [1], this compound yielded an ATG_ERa_TRANS of 5.959. This compound returned an ATG_LXRb_TRANS on LXRb (NR1H2) of 0. Besides, the CLZD_CYP1A2_24 in the data set with CYP1A2 is listed as 0.

The compound `OB(O)O` [r41] registered an NCGC_LXR_Agonist in the data set on LXRa (NR1H2) of 0. The compound also showed an NCGC_RXRa_Agonist on RXRa (RXRA) of 0. Further, the CHR_Rat_Liver_2_PreneoplasticLesion in the data set with Rat Liver was 0. In data set [1], the ATG_ERa_TRANS was determined as 0. For the same compound, the ATG_LXRb_TRANS on LXRb (NR1H2) is 0.

With `O=C(Nc1ccccc1-c1ccc(Cl)cc1)c1cccnc1Cl` [r42], the NCGC_LXR_Agonist in the data set with LXRa (NR1H2) is 0. The compound further registered an NCGC_RXRa_Agonist on RXRa (RXRA) of 0. Further, in the data set on Rat Liver, the CHR_Rat_Liver_2_PreneoplasticLesion was 6. In data set [1], this compound displayed an ATG_ERa_TRANS of 4.569. The compound also had an ATG_LXRb_TRANS at LXRb (NR1H2) of 0. In the data set on CYP1A2, this compound gave a CLZD_CYP1A2_24 of 4.876.

`CCC(C)n1c(=O)[nH]c(C)c(Br)c1=O` (stereo not drawn) [r43] yielded an NCGC_LXR_Agonist in the data set with LXRa (NR1H2) of 0. Also, on RXRa (RXRA), the NCGC_RXRa_Agonist was 0. Also, the CHR_Rat_Liver_2_PreneoplasticLesion with Rat Liver was 0. For the same compound, in data set [1], the ATG_ERa_TRANS is 0. The compound further registered an ATG_LXRb_TRANS at LXRb (NR1H2) of 0. The compound also had a CLZD_CYP1A2_24 with CYP1A2 of 4.966.

`N#Cc1cc(Br)c(O)c(Br)c1` [r44] came in with an NCGC_LXR_Agonist in the data set on LXRa (NR1H2) of 0. The compound further had an NCGC_RXRa_Agonist on RXRa (RXRA) of 4.817. The CHR_Rat_Liver_2_PreneoplasticLesion with Rat Liver is 0. Besides, the ATG_ERa_TRANS in data set [1] is 4.432. Further, the ATG_LXRb_TRANS at LXRb (NR1H2) is given as 0. The same compound had a CLZD_CYP1A2_24 with CYP1A2 of 0.

In the data set on LXRa (NR1H2), `C=CCOC(=O)C(C)(C)OC(=O)c1cc(-n2c(=O)cc(C(F)(F)F)n(C)c2=O)ccc1Cl` [r47] had an NCGC_LXR_Agonist of 0. This compound also yielded an NCGC_RXRa_Agonist at RXRa (RXRA) of 0. The CHR_Rat_Liver_2_PreneoplasticLesion in the data set with Rat Liver is listed as 0. Moreover, the ATG_ERa_TRANS in data set [1] was found to be 0. The same compound displayed an ATG_LXRb_TRANS on LXRb (NR1H2) of 0.

In the data set on LXRa (NR1H2), `CCC(C)Nc1c([N+](=O)[O-])cc(C(C)(C)C)cc1[N+](=O)[O-]` (stereo not drawn) [r48] showed an NCGC_LXR_Agonist of 0. In addition, the NCGC_RXRa_Agonist on RXRa (RXRA) is reported as 0. In data set [1], the ATG_ERa_TRANS was found to be 4.796. The compound also had an ATG_LXRb_TRANS on LXRb (NR1H2) of 0. This compound also had a CLZD_CYP1A2_24 with CYP1A2 of 0.

`O=C1C2CC=CCC2C(=O)N1SC(Cl)(Cl)Cl` (stereo not drawn) [r51]: the NCGC_LXR_Agonist in the data set on LXRa (NR1H2) was 0. This compound displayed an NCGC_RXRa_Agonist on RXRa (RXRA) of 0. This compound also returned an ATG_ERa_TRANS in data set [1] of 0. At LXRb (NR1H2), this compound gave an ATG_LXRb_TRANS of 0. Also, the CLZD_CYP1A2_24 in the data set with CYP1A2 was determined as 0.

As to `CNC(=O)Oc1cccc2ccccc12` [r52], the NCGC_LXR_Agonist with LXRa (NR1H2) turned out to be 0. The compound further yielded an NCGC_RXRa_Agonist on RXRa (RXRA) of 0. Moreover, the CHR_Rat_Liver_2_PreneoplasticLesion in the data set with Rat Liver is 6. This compound had an ATG_ERa_TRANS in data set [1] of 4.237. The compound also showed an ATG_LXRb_TRANS at LXRb (NR1H2) of 0.
